Data set [1] is described as follows: Cell viability assay (EZ-Cytox) in HepAD38 cells. Type of data set: cell-based. The note with it: human, 65 hours of treatment; for CC50 at 65 h: read-out: Cytotoxicity CC50; for viability at 65 h, 100 µM: read-out: Cytotoxicity % Livability (@100 μM). As to the method: HepAD38 cells were cultured for 2 days in Dulbecco's Modified Eagle's medium (Welgene, LM001-05) supplemented with 10% FBS without tetracycline. The cells were seeded in 48-well culture plates (1×10^5 cells/well) and treated with each compound at five concentrations (0 μM (0.8% DMSO as a control), 33 μM, 50 μM, 66 μM, and 100 μM). After 65 hours of treatment, viability was measured using EZ-Cytox cell viability assay kit (Daeil Lab Service) according to the manufacturer's instructions. The absorbance was measured at 450 nm using a spectrophotometer (Spark, Tecan). Here, NVR-3-778 (denoted as NVR) was used as a positive control.

The target in data set [2] is Protein (capsid assembly) (Hepatitis B virus genotype D subtype ayw, UniProt P03146). The data set is described as follows: Protein inhibition (capsid assembly inhibition), Table 1. The class given is biochemical. The note with it: for inhibition at 30 µM: read-out: Protein % inhibition rate (@30 μM); for EC50: NVR value of the same run in brackets, read-out: Protein EC50.
Sequence of Protein (capsid assembly) (P03146 whole entry): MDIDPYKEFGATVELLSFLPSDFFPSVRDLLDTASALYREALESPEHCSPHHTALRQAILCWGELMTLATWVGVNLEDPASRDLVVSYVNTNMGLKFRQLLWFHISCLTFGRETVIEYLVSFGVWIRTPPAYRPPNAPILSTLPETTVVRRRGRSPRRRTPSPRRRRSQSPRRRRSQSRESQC

In data set [3] the test system is intracellular HBV DNA. The data set is described as follows: Real-time PCR for intracellular HBV DNA in HepAD38 cells. Type of data set: cell-based, hepatitis B virus (HBV). As to conditions: Hepatitis B virus, HePAD38, 65 h, treated for 65 hours, intracellular HBV DNA by real-time PCR. As to the method: HepAD38 cells were cultured in DMEM medium (Welgene) supplemented with 200 unit/mL penicillin, 200 μg/mL streptomycin, and 10% FBS. During maintenance and passage, the cells were cultured together with 0.4 μg/mL tetracycline. Two days before the treatment with compounds for inducing HBV replication was started, the medium was replaced with a tetracycline-free complete growth medium. […]
HepAD38 cells were treated with a compound for 65 hours and then recovered, and intracellular HBV DNA was extracted therefrom according to the protocol in the DNeasy Blood & Tissue Kit (Qiagen). The primers and probes used to quantify HBV DNA were 5′-[…]-3′, 5′-[…]-3′, and 5′-/56-FAM/TGT CCT GGT/ZEN/[…]/3IABKFQ/-3′. The HBV DNA was amplified by real-time PCR assay using LightCycler 480 (Roche) (J. Virol., 2018, 92(16):e00339-18). All of the processes were confirmed in duplicate.
A general note: Real-time PCR tracks product formation cycle by cycle.

For the molecule `O=C(Nc1ccc(F)c(Cl)c1)N(Cc1nnc2n1CCCCC2)c1ccc(F)c(F)c1` [Example 22, 3-(3-Chloro-4-fluorophenyl)-1-(3,4-difluorophenyl)-1-((6,7,8,9-tetrahydro-5H-[1,2,4]triazolo[4,3-a]azepin-3-yl)methyl)urea], in data set [1], the CC50 at 65 h was more than 100000 nM and the viability at 65 h, 100 µM came to 92.9%. Further, the inhibition at 30 µM in data set [2] (@30 μM) is 43%. The EC50 in data set [2] amounted to 2600 nM. In data set [3], this molecule returned an IC50 of 400 nM.
For `COc1ccc(N(Cc2nnc3n2CCOCC3)C(=O)Nc2ccc(F)c(Cl)c2)cc1` [Example 27, 3-(3-Chloro-4-fluorophenyl)-1-(4-methoxyphenyl)-1-((5,6,8,9-tetrahydro-[1,2,4]triazolo[4,3-d][1,4]oxazepin-3-yl)methyl)urea] the same measures were more than 100000 nM, 91%, 65%, 2300 nM and 32 nM.
In the case of `O=C(Nc1ccc(F)c(Cl)c1)N(Cc1nnc2n1CCOCC2)c1ccnc(O)c1` [Example 46, 3-(3-chloro-4-fluorophenyl)-1-(2-hydroxypyridin-4-yl)-1-((5,6,8,9-tetrahydro-[1,2,4]triazolo[4,3-d][1,4]oxazepin-3-yl)methyl)urea], in data set [1], the CC50 at 65 h is more than 100000 nM and the viability at 65 h, 100 µM turned out to be 90.5%. For the same molecule, in data set [3], the half-maximal inhibitory concentration (IC50) was more than 1100 nM.
In the case of `COc1ccc(N(Cc2nnc(C(F)(F)F)n2C)C(=O)Nc2ccc(F)c(Cl)c2)cn1` [Example 49, 3-(3-Chloro-4-fluorophenyl)-1-(6-methoxypyridin-3-yl)-1-((4-methyl-5-(trifluoromethyl)-4H-1,2,4-triazol-3-yl)methyl)urea], in data set [1], the half-maximal cytotoxic concentration (CC50) at 65 h was more than 100000 nM and the viability at 65 h, 100 µM was 55.9%. This molecule returned an IC50 in data set [3] of 438 nM.
On to `O=C(Nc1ccc(F)c(Cl)c1)N(Cc1nnc2n1CCOC2)c1ccc2c(c1)OCO2` [Example 42, 1-(Benzo[d][1,3]dioxol-5-yl)-3-(3-chloro-4-fluorophenyl)-1-((6,8-dihydro-5H-[1,2,4]triazolo[3,4-c][1,4]oxazin-3-yl)methyl)urea], for which, in data set [1], the CC50 at 65 h was more than 100000 nM and the viability at 65 h, 100 µM came out at 83.7%. Moreover, the “Protein % inhibition rate (@30 μM)” value in data set [2] (@30 μM) is reported as 20%. Also, the EC50 in data set [2] is 6800 nM. In addition, the IC50 in data set [3] worked out at 210 nM.
On to `COc1ccc(N(Cc2nnc(C(F)F)n2C)C(=O)Nc2ccc(F)c(Cl)c2)cn1` [Example 48, 3-(3-Chloro-4-fluorophenyl)-1-((5-(difluoromethyl)-4-methyl-4H-1,2,4-triazol-3-yl)methyl)-1-(6-methoxypyridin-3-yl)urea], for which, in data set [1], the half-maximal cytotoxic concentration (CC50) at 65 h was more than 100000 nM and the viability at 65 h, 100 µM came to 102%. In data set [3], this molecule gave an IC50 of more than 1100 nM.
On to `COc1ccc(N(Cc2nnc3n2CCCC3)C(=O)Nc2ccc(F)c(Cl)c2)cc1` [Example 43, 3-(3-Chloro-4-fluorophenyl)-1-(4-methoxyphenyl)-1-((5,6,7,8-tetrahydro-[1,2,4]triazolo[4,3-a]pyridin-3-yl)methyl)urea], for which, in data set [1], the CC50 at 65 h was more than 100000 nM and the viability at 65 h, 100 µM was determined as 103%. Further, the inhibition at 30 µM in data set [2] (@30 μM) was 96.2%. The EC50 in data set [2] came to 3300 nM. Further, the concentration for half-maximal inhibition (IC50) in data set [3] was 790 nM.
For `CC(C)Oc1ccc(N(Cc2nnc3n2CCCCC3)C(=O)Nc2ccc(F)c(Cl)c2)cc1` [Example 12, 3-(3-Chloro-4-fluorophenyl)-1-(4-isopropoxyphenyl)-1-((6,7,8,9-tetrahydro-5H-[1,2,4]triazolo[4,3-a]azepin-3-yl)methyl)urea] the same measures were more than 100000 nM, 93.2%, 95%, 2500 nM and 110 nM.
Regarding `COc1cc(N(Cc2nnc3n2CCOCC3)C(=O)Nc2ccc(F)c(Cl)c2)ccn1` [Example 47, 3-(3-Chloro-4-fluorophenyl)-1-(2-methoxypyridin-4-yl)-1-((5,6,8,9-tetrahydro-[1,2,4]triazolo[4,3-d][1,4]oxazepin-3-yl)methyl)urea], in data set [1], the CC50 at 65 h was more than 100000 nM and the viability at 65 h, 100 µM is 81.2%. Further, the half-inhibitory concentration (IC50) in data set [3] came out at 92 nM.
Regarding `COc1ccc(N(Cc2nnc3n2CCCCC3)C(=O)Nc2ccc(F)c(Cl)c2)cc1` [Example 3, 3-(3-Chloro-4-fluorophenyl)-1-(4-methoxyphenyl)-1-((6,7,8,9-tetrahydro-5H-[1,2,4]triazolo[4,3-a]azepin-3-yl)methyl)urea], in data set [1], the CC50 at 65 h was more than 100000 nM and the viability at 65 h, 100 µM is 91.9%. Further, the inhibition at 30 µM in data set [2] (@30 μM) came out at 89%. Besides, in data set [2], the EC50 is 1600 nM. Further, the IC50 in data set [3] was 190 nM.
On to `O=C(Nc1ccc(F)c(Cl)c1)N(Cc1nnc2n1CCCCC2)c1ccc2ncsc2c1` [Example 16, 1-(Benzo[d]thiazol-6-yl)-3-(3-chloro-4-fluorophenyl)-1-((6,7,8,9-tetrahydro-5H-[1,2,4]triazolo[4,3-a]azepin-3-yl)methyl)urea], for which, in data set [1], the CC50 at 65 h is more than 100000 nM and the viability at 65 h, 100 µM was determined as 93.9%. In data set [2] (@30 μM), the inhibition at 30 µM is 80.9%. The concentration for a half-maximal effect (EC50) in data set [2] amounted to 2200 nM. For the same molecule, in data set [3], the midpoint of inhibition, the IC50, lay at 124 nM.
As to `COCCn1c(CN(C(=O)Nc2ccc(F)c(Cl)c2)c2ccc(OC)nc2)nnc1C(F)F` [Example 51, 3-(3-Chloro-4-fluorophenyl)-1-((5-(difluoromethyl)-4-(2-methoxyethyl)-4H-1,2,4-triazol-3-yl)methyl)-1-(6-methoxypyridin-3-yl)urea], in data set [1], the CC50 at 65 h is more than 100000 nM and the viability at 65 h, 100 µM stood at 84.2%. This molecule also showed a half-inhibitory concentration (IC50) in data set [3] of more than 1100 nM.
Turning to `COc1ccc(N(Cc2nnc(C(F)F)n2CCO)C(=O)Nc2ccc(F)c(Cl)c2)cn1` [Example 53, 3-(3-Chloro-4-fluorophenyl)-1-((5-(difluoromethyl)-4-(2-hydroxyethyl)-4H-1,2,4-triazol-3-yl)methyl)-1-(6-methoxypyridin-3-yl)urea], in data set [1], the CC50 at 65 h was more than 100000 nM and the viability at 65 h, 100 µM stood at 99.1%. In data set [3], the IC50 is more than 1100 nM.
Turning to `COc1ccc(N(Cc2nnc(-c3ccccc3)n2C)C(=O)Nc2ccc(F)c(Cl)c2)cc1` [Example 24, 3-(3-Chloro-4-fluorophenyl)-1-(4-methoxyphenyl)-1-((4-methyl-5-phenyl-4H-1,2,4-triazol-3-yl)methyl)urea], the CC50 at 65 h in data set [1] was more than 100000 nM. Further, in data set [2] (@30 μM), the inhibition at 30 µM is -1%. This molecule also gave a concentration for half-maximal inhibition (IC50) in data set [3] of more than 3300 nM.
Turning to `O=C(Nc1ccc(F)c(Cl)c1)N(Cc1nnc2n1CCCCC2)c1ccc2c(c1)OCO2` [Example 2, 1-(Benzo[d][1,3]dioxol-5-yl)-3-(3-chloro-4-fluorophenyl)-1-((6,7,8,9-tetrahydro-5H-[1,2,4]triazolo[4,3-a]azepin-3-yl)methyl)urea], in data set [1], the CC50 at 65 h is more than 100000 nM and the viability at 65 h, 100 µM stood at 100%. In data set [2] (@30 μM), the inhibition at 30 µM was 81%. The same molecule had an IC50 in data set [3] of 40 nM.
On to `N#Cc1cccc(NC(=O)N(Cc2nnc3n2CCCCC3)c2ccc3c(c2)OCO3)c1` [Example 8, 1-(Benzo[d][1,3]dioxol-5-yl)-3-(3-cyanophenyl)-1-((6,7,8,9-tetrahydro-5H-[1,2,4]triazolo[4,3-a]azepin-3-yl)methyl)urea], for which, in data set [1], the CC50 at 65 h was more than 100000 nM and the viability at 65 h, 100 µM amounted to 91.6%. Moreover, in data set [2] (@30 μM), the inhibition at 30 µM was 83%. Besides, the EC50 in data set [2] was determined as 1800 nM. Also, in data set [3], the concentration for half-maximal inhibition (IC50) was 270 nM.
`COc1ccc(N(Cc2nnc(C(F)(F)F)n2CCO)C(=O)Nc2ccc(F)c(Cl)c2)cn1` [Example 50, 3-(3-Chloro-4-fluorophenyl)-1-((4-(2-hydroxyethyl)-5-(trifluoromethyl)-4H-1,2,4-triazol-3-yl)methyl)-1-(6-methoxypyridin-3-yl)urea]: in data set [1], the CC50 at 65 h is more than 100000 nM and the viability at 65 h, 100 µM came out at 101%. For the same molecule, the IC50 in data set [3] is more than 1100 nM.
For `COCCn1c(CN(C(=O)Nc2ccc(F)c(Cl)c2)c2ccc(OC)nc2)nnc1C(F)(F)F` [Example 52, 3-(3-Chloro-4-fluorophenyl)-1-((4-(2-methoxyethyl)-5-(trifluoromethyl)-4H-1,2,4-triazol-3-yl)methyl)-1-(6-methoxypyridin-3-yl)urea] the same measures were more than 100000 nM, 55.4% and more than 1100 nM.
In the case of `Cn1ccc(N(Cc2nnc3n2CCCCC3)C(=O)Nc2ccc(F)c(Cl)c2)n1` [Example 35, 3-(3-Chloro-4-fluorophenyl)-1-(1-methyl-1H-pyrazol-3-yl)-1-((6,7,8,9-tetrahydro-5H-[1,2,4]triazolo[4,3-a]azepin-3-yl)methyl)urea], in data set [2] (@30 μM), the inhibition at 30 µM is 63.1%. The same molecule registered an IC50 in data set [3] of more than 3300 nM.

What is called CC50 is the concentration that lowers cell viability or growth by half. Usually inhibition stands for the relative decrease from the control value, in per cent. As a reminder, the EC50 is the concentration that produces a half-maximal response. As a reminder, the IC50 is the concentration needed to halve the response being measured. Read a high IC50 as lower potency.

These data come from US20250235462A1, “NOVEL CAPSID ASSEMBLY INHIBITORS” (AM SCIENCES INC, priority 2021, published 2025).
